The values that follow come from PMC7510464, “The wasp venom antimicrobial peptide polybia‐CP and its synthetic derivatives display antiplasmodial and anticancer properties” (Bioengineering & Translational Medicine, 2020).

No end group written: not given here.

Data set [1] relates to human mammary cells (MCF-7). The experiment in a line: MTT assay, MCF-7 cells. The class given is cell-based. To be noted: 570 nm, method gives serial dilutions 0.09–50 μmol L^−1, 2 and 24 hr (time for IC50 not stated), triplicate, NO = not observed, read-out: IC50, concentration of peptide needed for killing 50% of MCF-7. As to the method:
(§1) Human mammary adenocarcinoma (MCF‐7) cells were maintained in RPMI 1640 medium supplemented with 10% heat inactivated fetal bovine serum and 100 μg ml^−1 penicillin/10 μg ml^−1 streptomycin. While hepatocellular carcinoma (Hep G2) cells, neuroblastoma (SHSY‐5Y) cells and melanoma (SK‐mel‐147) cells were maintained in RPMI 1640 medium supplemented with 10% heat inactivated fetal bovine serum and 100 μg ml^−1 penicillin/10 μg ml^−1 streptomycin. One day before the assays, the cells were plated in 96‐well microtiter plate with a density of 2.0 × 10^4 cells/well at 37°C and 5% CO2. On the next day, cells were treated with peptides serial dilutions (0.09–50 μmol L^−1), incubated in individual microtiter plates for 2 and 24 hr and MTT assays were performed after treatment. Human breast epithelial cells MCF‐10A (ATCC) were maintained in mixture of Dulbecco's modified Eagle's medium and Ham's F12 nutrient mixture supplemented with 5% inactivated horse serum, 10 μg ml^−1 insulin, 0.02 μg ml^−1 human epidermal growth factor, 0.5 μg ml^−1 hydrocortisone, 0.10 μg ml^−1 choleric toxin, 100 U ml^−1 penicillin, and 100 μg ml^−1 streptomycin. […]
(§2) Briefly, MTT (Sigma–Aldrich) was dissolved in water and filtered to make up a 5 μg ml^−1 solution. […] Finally, the microplates were read on an ELISA reader at 570 nm. […]
For orientation: Formazan colour is commonly taken as a measure of viable cells.

In data set [2] the test system is human embryonic kidney (HEK293) cells. To be noted: at 25 μmol L^−1; cited from earlier work. The source says:
The inhibitory activities observed against cancer cell lines are at the same range of concentrations reported for antimicrobial activity ^6 (Figure 2b) for this family of peptides.

For data set [3], the system named is neuroblastoma cell (SH-SY5Y). Nature of the data set: MTT assay, SH-SY5Y cells. To be noted: 570 nm, method gives serial dilutions 0.09–50 μmol L^−1, 2 and 24 hr (time for IC50 not stated), triplicate, NO = not observed, read-out: IC50, concentration of peptide needed for killing 50% of SH-SY5Y. The class given is cell-based. On the procedure:
as §1, §2

Data set [4] concerns Plasmodium gallinaceum sporozoites. The experiment in a line: Effect of peptides on salivary gland-derived P. gallinaceum sporozoites (membrane integrity, propidium iodide fluorescence). To be noted: peptides 0.39–6.25 μmol L^−1, 9000 sporozoites in 50 μl PBS, 37°C, 1 hr, fluorescence microscopy, three independent replicates. The class given is cell-based. As to the method:
To assess the antiplasmodial activity of Pol‐CP‐NH2 and its derivatives, the molecules were incubated with Plasmodium gallinaceum sporozoites. The avian malaria parasite, P. gallinaceum, was chosen as the plasmodium model for this study because it presents lower risk and it is highly similar ^27 , ^28 to existing Plasmodium falciparum models responsible for human malaria. ^29
FIGURE 2 Antiplasmodial activity of polybia‐CP and derivatives in vitro. […] In red, we highlight the conditions at which the peptides were not active against the Plasmodium sporozoites. Experiments were performed in three independent replicates with three repetitions for each condition
Nine thousand P. gallinaceum mature sporozoites were pulled from the salivary glands of A. aegypti and incubated in 50 μl of PBS solution, with 40 μmol L^−1 digitonin (positive control), 0.39–6.25 μmol L^−1 peptides or negative control (PBS solution), at 37°C for 1 hr. Cell membrane integrity was then observed using a Carl Zeiss inverted fluorescence microscope (model Observer Axio Vision A.1) coupled to an image capture Zeiss AxioCam HR digital camera (1,300 × 1,030 pixels resolution and 8‐bit quantization) after addition of 1 μl of the propidium iodide aqueous solution (200 μmol L^−1) in […] of total solution volume. Images were obtained using a ×40 objective lens and a green filter effect in red. […]

Data set [5] deals with carcinoma cells of human liver (HepG2). The experiment in a line: MTT assay, HepG2 cells. It is filed as cell-based. To be noted: 570 nm, method gives serial dilutions 0.09–50 μmol L^−1, 2 and 24 hr (time for IC50 not stated), triplicate, NO = not observed, read-out: IC50, concentration of peptide needed for killing 50% of HepG2. On the procedure:
as §1, §2

In the case of “ILGTILGLLKSL-NH2 [Pol-CP-NH2, Ile‐Leu‐Gly‐Thr‐Ile‐Leu‐Gly‐Leu‐Leu‐Lys‐Ser‐Leu‐NH2]”, the IC50 in data set [1] turned out to be 200 µM. The “toxicity against HEK293 cells” value in data set [2] is reported as “one of the most toxic AMPs of the polybia‐CP family”.

In the case of ILGKILGLLKSL-NH2 [[Lys]^4-Pol-CP-NH2], the IC50 is > 50 µM in data set [3], 200 µM in data set [1] and > 50 µM in data set [5]. In addition, the “antiplasmodial activity (fluorescent sporozoites, membrane disrupted)” value in data set [4] is “most active ones against Plasmodium”.
